Laboratory results taken from PubChem BioAssay AID270 (DTP/NCI, 2004).
Records with an inconclusive call do not appear.

Tested on: BDF1 mice, s.c. Lewis lung carcinoma, T/C %
Assay: NCI In Vivo Anticancer Drug Screen. Data for tumor model Lewis Lung Carcinoma (subcutaneous) in B6D2F1 (BDF1) mice
Procedure, shortened: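 Antitumor effect in vivo is scored from survival or tumor burden, reported as treated relative to vehicle controls.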

[1] = endpoint: mean tumor weight, dose: 25.0 mg/kg/injection, schedule: Q01DX011 (ip), vehicle: carboxymethylcellulose (CMC), higher = larger tumour
[2] = endpoint: mean tumor weight, dose: 50.0 mg/kg/injection, schedule: Q01DX011 (ip), vehicle: carboxymethylcellulose (CMC), higher = larger tumour

OC(C1CO1)C(O)C1CO1 (configuration not stated)
T/C (endpoint: mean tumor weight (est.), dose: 1.0 mg/kg/injection, schedule: Q01DX009 (ip), vehicle: saline, higher = larger tumour): 73 % of control | T/C (endpoint: mean tumor weight (est.), dose: 1.0 mg/kg/injection, schedule: Q04DX003 (ip), vehicle: saline, higher = larger tumour): 65 % of control | T/C (endpoint: mean tumor weight (est.), dose: 2.0 mg/kg/injection, schedule: Q01DX009 (ip), vehicle: saline, higher = larger tumour): 46 % of control | T/C (endpoint: mean tumor weight (est.), dose: 2.0 mg/kg/injection, schedule: Q04DX003 (ip), vehicle: saline, higher = larger tumour): 45 % of control | T/C (endpoint: mean tumor weight (est.), dose: 4.0 mg/kg/injection, schedule: Q04DX003 (ip), vehicle: saline, higher = larger tumour): 63 % of control | T/C (endpoint: median survival time, dose: 1.0 mg/kg/injection, schedule: Q01DX009 (ip), vehicle: saline, higher = longer survival): 95 % of control | T/C (endpoint: median survival time, dose: 1.0 mg/kg/injection, schedule: Q04DX003 (ip), vehicle: saline, higher = longer survival): 104 % of control | T/C (endpoint: median survival time, dose: 2.0 mg/kg/injection, schedule: Q01DX009 (ip), vehicle: saline, higher = longer survival): 117 % of control | T/C (endpoint: median survival time, dose: 2.0 mg/kg/injection, schedule: Q04DX003 (ip), vehicle: saline, higher = longer survival): 104 % of control | T/C (endpoint: median survival time, dose: 4.0 mg/kg/injection, schedule: Q04DX003 (ip), vehicle: saline, higher = longer survival): 123 % of control

COc1cc(O)c2c(c1)C(=O)c1cc3c(c(O)c1C2=O)C(O)C(OC)C(C)(O)C3=O (configuration not stated)
T/C (endpoint: median survival time, dose: 12.5 mg/kg/injection, schedule: Q01DX009 (ip), vehicle: water, higher = longer survival): 109 % of control | T/C (endpoint: median survival time, dose: 25.0 mg/kg/injection, schedule: Q01DX009 (ip), vehicle: Klucel (hydroxypropylcellulose) (HPC), higher = longer survival): 95 % of control | T/C (endpoint: median survival time, dose: 25.0 mg/kg/injection, schedule: Q01DX009 (ip), vehicle: water, higher = longer survival): 89 % of control | T/C (endpoint: median survival time, dose: 50.0 mg/kg/injection, schedule: Q01DX009 (ip), vehicle: Klucel (hydroxypropylcellulose) (HPC), higher = longer survival): 103 % of control | T/C (endpoint: median survival time, dose: 50.0 mg/kg/injection, schedule: Q01DX009 (ip), vehicle: water, higher = longer survival): 124 % of control | T/C (endpoint: median survival time, dose: 100.0 mg/kg/injection, schedule: Q01DX009 (ip), vehicle: Klucel (hydroxypropylcellulose) (HPC), higher = longer survival): 100 % of control | T/C (endpoint: median survival time, dose: 100.0 mg/kg/injection, schedule: Q01DX009 (ip), vehicle: water, higher = longer survival): 103 % of control | T/C (endpoint: median survival time, dose: 200.0 mg/kg/injection, schedule: Q01DX009 (ip), vehicle: water, higher = longer survival): 90 % of control

CCOc1ccc2nc(S(N)(=O)=O)sc2c1
T/C [1]: 79 % of control | T/C [2]: 122 % of control | T/C (endpoint: mean tumor weight, dose: 100.0 mg/kg/injection, schedule: Q01DX011 (ip), vehicle: carboxymethylcellulose (CMC), higher = larger tumour): 38 % of control

COC(=O)C(N)CCCCNc1ccc2c(cc1=O)C(NC(C)=O)CCc1cc(OC)c(OC)c(OC)c1-2 (configuration not stated)
T/C (endpoint: median survival time, dose: 25.0 mg/kg/injection, schedule: Q02DX009 (ip), vehicle: saline with Tween-80, higher = longer survival): 100 % of control | T/C (endpoint: median survival time, dose: 50.0 mg/kg/injection, schedule: Q02DX009 (ip), vehicle: saline with Tween-80, higher = longer survival): 94 % of control

COc1ccc(-c2cc(=O)c3ccccc3o2)c(OC)c1OC
T/C (endpoint: mean tumor weight, dose: 50.0 mg/kg/injection, schedule: Q01DX010 (ip), vehicle: saline, higher = larger tumour): 95 % of control | T/C (endpoint: mean tumor weight, dose: 100.0 mg/kg/injection, schedule: Q01DX010 (ip), vehicle: saline, higher = larger tumour): 101 % of control | T/C (endpoint: mean tumor weight, dose: 200.0 mg/kg/injection, schedule: Q01DX010 (ip), vehicle: saline, higher = larger tumour): 83 % of control | T/C (endpoint: mean tumor weight, dose: 400.0 mg/kg/injection, schedule: Q01DX010 (ip), vehicle: saline, higher = larger tumour): 99 % of control

COC(=O)c1ccccc1NC(c1ccccn1)c1ccc2cccnc2c1O (configuration not stated)
T/C (endpoint: mean tumor weight, dose: 10.0 mg/kg/injection, schedule: Q01DX011 (ip), vehicle: carboxymethylcellulose (CMC), higher = larger tumour): 55 % of control | T/C [1]: 111 % of control | T/C (endpoint: mean tumor weight, dose: 37.0 mg/kg/injection, schedule: Q01DX011 (ip), vehicle: carboxymethylcellulose (CMC), higher = larger tumour): 115 % of control | T/C [2]: 56 % of control | T/C (endpoint: mean tumor weight, dose: 62.0 mg/kg/injection, schedule: Q01DX011 (ip), vehicle: carboxymethylcellulose (CMC), higher = larger tumour): 30 % of control | T/C (endpoint: mean tumor weight, dose: 70.0 mg/kg/injection, schedule: Q01DX011 (ip), vehicle: carboxymethylcellulose (CMC), higher = larger tumour): 78 % of control | T/C (endpoint: mean tumor weight, dose: 75.0 mg/kg/injection, schedule: Q01DX011 (ip), vehicle: carboxymethylcellulose (CMC), higher = larger tumour): 86 % of control | T/C (endpoint: mean tumor weight, dose: 125.0 mg/kg/injection, schedule: Q01DX011 (ip), vehicle: carboxymethylcellulose (CMC), higher = larger tumour): 33 % of control | T/C (endpoint: mean tumor weight, dose: 150.0 mg/kg/injection, schedule: Q01DX011 (ip), vehicle: carboxymethylcellulose (CMC), higher = larger tumour): 80 % of control | T/C (endpoint: mean tumor weight, dose: 250.0 mg/kg/injection, schedule: Q01DX011 (ip), vehicle: carboxymethylcellulose (CMC), higher = larger tumour): 76 % of control | T/C (endpoint: mean tumor weight, dose: 300.0 mg/kg/injection, schedule: Q01DX011 (ip), vehicle: carboxymethylcellulose (CMC), higher = larger tumour): 62 % of control | T/C (endpoint: mean tumor weight, dose: 500.0 mg/kg/injection, schedule: Q01DX011 (ip), vehicle: carboxymethylcellulose (CMC), higher = larger tumour): 53 % of control

CCCCCOC(CN)C(Cl)(Cl)Cl (configuration not stated)
T/C (endpoint: median survival time, dose: 12.5 mg/kg/injection, schedule: Q01DX009 (ip), vehicle: saline, higher = longer survival): 100 % of control | T/C (endpoint: median survival time, dose: 25.0 mg/kg/injection, schedule: Q01DX009 (ip), vehicle: saline, higher = longer survival): 92 % of control | T/C (endpoint: median survival time, dose: 100.0 mg/kg/injection, schedule: Q01DX009 (ip), vehicle: saline, higher = longer survival): 95 % of control
